Tests used:
[1] = test system: multifunctional germacrene D synthase (EST75565); assay: Sesquiterpene products of purified recombinant protein + FDP, headspace trapping GC-MS; type: biochemical, Actinidia deliciosa
Description: Characterization of multifunctional germacrene D synthase from bacterial extracts and purified recombinant protein: E. coli BL21-Plus™-RIL cells harbouring pET-30a75565 were grown overnight at 37° C. in Lauria-Bertani media supplemented with 30 μg ml^−1 kanamycin and 34 μg ml chloramphenicol^−1. 5 mL aliquots of overnight culture were used to inoculate 4×300 mL of fresh 2× YT medium supplemented with 30 μg ml^−1 kanamycin and 34 μg ml^−1 chloramphenicol in 1 L baffled flasks. Cultures were grown at 37° C. with vigorous agitation to A600=0.8, then removed to 4° C. to equilibrate to 16° C. before induction with 0.3 mM IPTG. Following induction, cultures were immediately transferred to a 16° C. incubator and allowed to grow for a further 24 hours with continuous agitation and then harvested by centrifugation (2000×g for 10 min). […]
The headspace in the testubes was collected immediately after the addition of FDP (or GDP) and hexadecane (internal standard) using solid phase micro extraction (SPME). […] The background was analysed for contamination using GC-FID (HP5890) prior to use. […]
The volatiles were desorbed from the fibres in the GC injection port for 10 minutes at 220° C. for the Carbowax/DVB fibres. […] Semi-quantitative data was obtained by measuring sample peak area relative to hexadecane internal standard. […]

[2] = test system: multifunctional germacrene D synthase; assay: Headspace volatiles above E. coli BL21 cultures harbouring pET30a75565, PDMS/DVB SPME; type: cell-based, Actinidia deliciosa; details: bacterial cultures
Description: Expression and characterization of multifunctional germacrene D synthase from bacterial cultures: E. coli BL21-Plus™-RIL cells harbouring pET30a75565, or empty pET30a vector as a control, were grown overnight at 37° C. in Luria-Bertani media supplemented with 30 μg/mL kanamycin and 50 μg/mL chloramphenicol. […] of overnight culture was used to inoculate 50 mL of fresh 2× YT medium supplemented with 30 μg/mL kanamycin and 50 μg/mL chloramphenicol. […] The culture was immediately transferred to an incubator set at 16° C., 30° C. or 37° C. depending on the experiment The headspace in the vessels above the bacterial cultures was collected immediately after the addition of FDP (or GDP) and hexadecane (the internal standard) using solid phase micro extraction (SPME). […] The background was analysed for contamination using GC-FID (HP5890) prior to use. The headspace volatiles were collected for ˜20 hours at 30° C. with continuous agitation (110 rpm). Prior to analysis using a GC-FID/MS, the fibres were stored at ambient temperature in septum sealed glass vials. The PDMS/DVB fibres were desorbed in the injector at 260° C.

house dust mites = details: Chang et al. 2001; cited from earlier work
Germacrene D synthase = Germacrene D synthase (Actinidia deliciosa, UniProt Q32W37); assay: Kinetic studies with 3H-FDP, pentane overlay scintillation assay; type: biochemical; details: for effect of added ions on activity: 50 mM KCl or NaCl; for inhibition at high concentrations of the chloride salts: >5 mM and 10 mM of the respective Mg2+ and Mn2+ chloride salts
Description: Optimisation of large-scale production of protein and protein kinetics: E. coli BL21-PlusTM-RIL cells harbouring pET-30a75565 were grown overnight at 37° C. in Lauria-Bertani media supplemented with 30 μg ml^-1 kanamycin and 34 μg ml chloramphenicol^-1. 5 mL aliquots of overnight culture were used to inoculate 4×300 mL of fresh 2× YT medium supplemented with 30 μg ml^-1 […] 34 μg ml^-1 chloramphenicol in 1 L baffled flasks. Cultures were grown at 37° C. with vigorous agitation to A600=0.8, then removed to 4° C. to equilibrate to 16° C. before induction with 0.3 mM IPTG. Induced cultures were then incubated at 16° C. and 220 rpm for a further 72 hours. Cells were pelleted by centrifugation (2500×g; 10 min) and stored overnight at -20° C. The following day cell pellets were resuspended in 20 mL His6 binding buffer and cells were disrupted by 2 passes through an EmulsiFlex®-C15 high-pressure homogeniser (Avestin) with a pressure setting between 15000-20000 psi. Cell debris was pelleted by centrifugation 2× at 10000×g for 15 min; 4° C. (Sorval SS34 rotor). […] Filtered extract was desalted and passed over a Nickel affinity column. Concentration of the recombinant synthase in the purified protein extracts was estimated from SDS-PAGE gels by comparing against a BenchMarkTM Protein Ladder (Invitrogen). Purified extracts were adjusted to a workable concentration with His6 elution buffer (without Imidazole) containing 10% glycerol and 1 mM DTT. The extract was then separated into 100 μl aliquots and stored at -80° C. until required. […] Kinetic Studies: […] Tritiated FDP was added variously depending on the experiment. One mL assays containing 100-150 ng of the recombinant synthase were overlaid with 0.6 mL pentane and incubated in 1.5 mL microfuge tubes for 2 hours at 30° C. and 150 rpm. All assays were performed in triplicate. Following incubation assays were immediately placed on ice and a 200 μL aliquot of the pentane layer removed for analysis. The aliquots were added to 1.5 mL microfuge tubes containing 0.7 mL Organic Counting Scintillant (OCS) (Amersham) and vortexed briefly. Scintillation analysis was performed using a Wallac 1409 Liquid Scintillation Counter (^3H efficiency≈70%). […] The effect on enzyme activity of metal co-factors with and without salts was also tested. Mg^2+ and Mn^2+ were added in the presence and absence of 50 mM KCL and 50 mM NaCl in all possible combinations. Controls included incubation without enzyme, with enzyme but without metal ion cofactors and with enzyme and cofactors in the presence of 10 mM EDTA. A further control comprising His6 purified pET-30a extract was also assayed to determine potential utilisation of FDP by co-purifying bacterial proteins. […] Kinetic constants were determined from the DPM data by nonlinear regression using the Origin50 graphics package.

[3] = Thermal rearrangement, pentane extracts from purified protein injected at different port temperatures; type: physicochemical
Description: Dynamic headspace methods were also used to collect the headspace volatiles from the purified extracts on to 100 mg Chromosorb 105 adsorbent traps. The protein was placed into 50 mL Quickfit® test tubes, which were fitted with a headspace adaptor with an air inlet and outlet. Volatiles were collected onto the Chromosorb 105 adsorbent traps, which were fitted to the air outlet port of each adaptor. The volatiles were purged from the vessel onto the traps with clean air at 50 mL min^−1 for 18 hours. The traps were stored at −15° C. for up to one week, and then subjected to GC-FIDIMS analysis. Finally, pentane extracts were taken from the purified extracts. An aliquot (2.5 ml) of pentane was added to the purified extracts and was left to extract for 18 hours. The pentane was removed and then concentrated with a stream of N2 gas. This was then injected onto the GC-MS at 150° C.
More light can be shed on the possibility of rearrangement of the products using pentane extraction.
In an experiment to test for thermal rearrangement, injections of pentane extract from purified protein were made at temperatures of 125, 150 and 210° C.; or pentane extract from Actinidia flowers were made at temperatures of 100, 125, 150 and 210° C. […] Germacrene B modulated slightly in response to temperature shifts although no gamma-elemene was found as might be predicted. In addition the predicted precursor for delta elemene—germacrene C (Feger et al., Flavour and Fragrance Journal 15: 170-173 (2000)) was not detected at any time. Germacrene A was also not detected at any time. […] Elemol may arise from further rearrangements of delta-elemene or from other elemene sources or from hedycaryol (Chamblee et al., J. Essent. Oil Res. 9: 127-132 (1997)). No GC-MS traces in any experiments indicated evidence for germacrene-C or for hedycaryol.

[4] = Thermal rearrangement, pentane extracts from Actinidia flowers injected at different port temperatures; type: physicochemical
Description: Whole flowers of the same plants were also harvested at anthesis in 2000. 18.6 g and 21 g of flowers from a mixture of developmental stages were placed in 2× Quickfit® Erlenmeyer flasks as above. Volatiles were collected onto a Chromosorb adsorbent trap in duplicate, after the system had been equilibrated for 30 min at room temperature (ca. 23° C.), by purging onto the trap with clean air at 25 mL min^−1 for 60 minutes. The trap was stored at −15° C. for one week and then analysed by GC-FD/MS. The same petals (1.99 g) were then extracted with pentane-ether (2 ml) and stored at −20° C. until analysed. The pentane (GPR, BDH) had been purified by distillation and by passing through a column of activated alumina. Pentane extracts were reduced by rotary evaporation and were dried by passing through a small column of anhydrous MgSO4 before the volume was reduced to ca. 50 μL under a gentle stream of nitrogen. The extract was analysed by GC-FID/MS.
GC-MS Analysis of dynamic headspace samples and pentane extracts: Volatile compounds were thermally desorbed from the headspace traps at 150° C. and were cryo-focussed at the beginning of the GC column (Young, 1981). The column outlet was split between the GC (Hewlett Packard 5890) FID detector (for quantitation) and VG-70SE (VG-Micromass, Manchester, U.K.) mass spectrometer (for component identification) with an electron impact ionisation of 70 eV. Separations were carried out in a 30 m×0.32 mm i.d., 0.5 μn DBWax capillary column (J & W Scientific, Folsom, USA), starting at 30° C. for 6 min, increasing by 3° C. min^−1 to 102° C., 5° C. min^−1 to 210° C. and held for 5 min. Injector temperature was 210° C. The carrier gas was He at a flow rate of ˜30 cm s^−1, and the FID and mass spectrometer transfer line were at 210° C. Quantification of compounds was carried out using an average detector response based on methyl butanoate, ethyl butanoate, hexanol and methyl benzoate. Components were identified by comparison with spectra in the mass spectral database (NIST 1998, Wiley 7 and an in-house database), retention indices (in-house database) and in some cases direct GC-MS comparison with authentic standards. Separations for the earlier 2000 samples were carried out in the same manner as above except the programme started at 30° C. for 6 min, increasing by 3° C. min^−1 to 102° C., 5° C. min^−1 to 190° C. and held for 5 min. Analysis of the pentane extract used a programme of 2 min at 40° C., 5° C. min^−1 to 200° C., 15° C. m^−1 to 240° C. and held for 20 min. For genotype 32-10-07a: the GC-MS was programmed to start at 30° C. for 2 min, increasing by 3° C. min^−1 to 50° C., 5° C. min^−1 to 130° C., 10° C. min^−1 to 240° C. and held for 2 min. Injector temperature was 240° C.
In an experiment to test for thermal rearrangement, injections of pentane extract from purified protein were made at temperatures of 125, 150 and 210° C.; or pentane extract from Actinidia flowers were made at temperatures of 100, 125, 150 and 210° C.

[5] = test system: other sesquiterpene synthases; details: read-out: Km in the literature; cited from earlier work
[6] = injection port temperature 125 °C
[7] = injection port temperature 150 °C
[8] = injection port temperature 210 °C

CC(C)=CCC/C(C)=C/COP(=O)(O)OP(=O)(O)O [GDP, geranyl diphosphate]
products on addition of GDP instead of FDP [1]: did not produce any germacrene D | products on addition of GDP instead of FDP [2]: did not result in the production of any monoterpenes

CC1=C[C@@H]2[C@@H](CC1)[C@](C)(O)CC[C@H]2C(C)C [Alpha-cadinol]
miticidal activity (house dust mites): potent miticide

[Na+] [Na^+]
effect of added ions on activity (Germacrene D synthase): little or no effect

CC(C)=C1C/C=C(\C)CC/C=C(\C)CC1 [Germacrene B]
Peak Area [3, 6]: 7.57 × 10^5 | Peak Area [3, 7]: 8.58 × 10^5 | Peak Area [3, 8]: 5.87 × 10^5 | Peak Area ([4]; injection port temperature 100 °C): 5.0 × 10^6 | Peak Area [4, 6]: 7.40 × 10^6 | Peak Area [4, 7]: 1.0 × 10^7 | Peak Area [4, 8]: 3.92 × 10^6

[Mg+2] [Mg^2+]
inhibition at high concentrations of the chloride salts (Germacrene D synthase): No significant inhibition | Km [5]: 70 to 150 µM

C=C[C@@]1(C)CCC(C(C)C)=C[C@@H]1C(=C)C [δ-Elemene]
Peak Area [3, 8]: 9.05 × 10^5 | Peak Area [4, 7]: ca. 5.7 × 10^5 | Peak Area [4, 8]: 4.14 × 10^6

[K+] [K^+]
effect of added ions on activity (Germacrene D synthase): little or no effect

C=C[C@]1(C)CC[C@@H](C(C)(C)O)C[C@H]1C(=C)C [Elemol]
Peak Area [3, 6]: ca. 9 × 10^4^ | Peak Area [3, 7]: ca. 1.4 × 10^5^ | Peak Area [3, 8]: 5.75 × 10^6 | Peak Area [4, 7]: ca. 8.4 × 10^6 | Peak Area [4, 8]: 3.78 × 10^7

CC(C)=CCC/C(C)=C/CC/C(C)=C/COP(=O)(O)OP(=O)(O)O [FDP, farnesyl diphosphate]
saturating concentration of FDP (Germacrene D synthase): ~7.5 µM | inhibition by substrate (Germacrene D synthase; 1 mM substrate concentration): ~50% | Km [5]: 0.4 to 4.5 µM

[Mn+2] [Mn^2+]
Vrel with Mn2+ as cofactor relative to Mg2+ (Germacrene D synthase): ~27% | effect of Mn in the buffer when Mg2+ present (Germacrene D synthase): inhibition of activity | inhibition at high concentrations of the chloride salts (Germacrene D synthase): No significant inhibition | Km [5]: 7 to 30 µM

CC(C)=CCC/C(C)=C/CC/C(C)=C/CO[P@@](=O)(O)OP(=O)(O)O (stereo in doubt) [FDP, farnesyl diphosphate]
Km (Germacrene D synthase; saturating Mg2+, pH 7.5, 30 °C): 1 to 2 µM

B1: Germacrene D synthase: recombinant His6-tagged sesquiterpene synthase from Actinidia deliciosa petals, SEQ ID NO:2 (protein, listed as Actinidia deliciosa)
chain: MQLPCAQALPIPTVTTTTSIEPPHVTRRSANYHPSIWGDHFLAYSSDAMEEEVINMEQQQRLHHLKQKVRKMLEAAAEQSSQMLNLVDKIQRLGVSYHFETEIETALRHIYKTCDYHFDDLHTAALSFRLLRQQGYPVSCDMFDKFKNSKGEFQESIISDVQGMLSLYEATCLRIHGEDILDEALAFTITQLRSALPNLSTPFKEQIIHALNQPIHKGLTRLNARSHILFFEQNDCHSKDLLNFAKLDFNLLQKLHQRELCEITRWWKDLNFAKTLPFARDRMVECYFWILGVYFEPQYLLARRMLTKVIAMISIIDDIYDVYGTLEELVLFTDAIERWEISALDQLPEYMKLCYQALLDVYSMIDEEMAKQGRSYCVDYAKSSMKILVRAYFEEAKWFHQGYVPTMEEYMQVALVTAGYKMLATSSFVGMGDLATKEAFDWVSNDPLIVQAASVIGRLKDDIVGHKFEQKRGHVASAVECYSKQHGTTEEEAIIELDKQVTHSWKDINAECLCPIKVPMPLLARVLNLARVLYVIYQDEDGYTHPGTKVENFVTSVLIDSMPIN
modifications: His6 tag
decrease in enzyme activity (Germacrene D synthase; 0.5 pH units lower than 7.5): 47% | decrease in enzyme activity (Germacrene D synthase; 1 pH unit higher than 7.5): 59% | activity relative to optimal temperature activity (Germacrene D synthase; 16 °C): ~56% | activity at high temperature (Germacrene D synthase; 50 °C): Little or no activity | Vrel in the absence of DTT (Germacrene D synthase; optimal conditions, without DTT): ~53% | temperature of maximum synthase activity (Germacrene D synthase; range 16-50 °C, 10 mM MgCl2, 10 μM FDP): 30 °C | pH optimum (Germacrene D synthase; tri-buffer system pH 5.7-9.5, 10 mM MgCl2, 10 μM FDP): 7.5

Reference: patent US7312323B2, “Enzymes and polynucleotides encoding the same” (The Horticulture and Food Research Institute of New Zealand …, priority 2002, dated 2007)
